According to US20060063720A1, “Oxaliplatin solution concentrate” (priority 2004, published 2006):

Assays:
[1] = cited from earlier work
[2] = Solubility of oxaliplatin in aqueous carbohydrate solutions (saturated solution supernatant, HPLC; pH of saturated solution); conditions: for Oxaliplatin concentration of the saturated solution: pH not adjusted; for pH of the saturated solution: oxaliplatin-saturated

In the case of `O=C1[O][Pt-2]2([NH2+]C3CCCC[C@H]3[NH2+]2)[O]C1=O` (stereo partly drawn) [Oxaliplatin, cis-oxalato-(trans-1,2-cyclohexanediamine)-platinum(II)], the Stability in water ([1]; at least at concentrations below 1 mg/ml) is listed as “not very stable”, the Solubility in ethanol ([1]; ethanol) is listed as “practically insoluble” and the Solubility in methanol ([1]; methanol) is listed as “scarcely soluble”. For the same compound, the Solubility in water ([1]; water) was “soluble”, the “Oxaliplatin concentration of the saturated solution” value ([2]; 0% Glucose) was 7.66 mg/mL and the “Oxaliplatin concentration of the saturated solution” value ([2]; 5% Glucose) was 8.14 mg/mL. For the same compound, the “Oxaliplatin concentration of the saturated solution” value ([2]; 10% Glucose) was 10.74 mg/mL, the “Oxaliplatin concentration of the saturated solution” value ([2]; 10% Lactose) was 10.12 mg/mL and the “Oxaliplatin concentration of the saturated solution” value ([2]; 10% Trehalose) was 10.32 mg/mL. For the same compound, the “Oxaliplatin concentration of the saturated solution” value ([2]; 20% Glucose) was 11.85 mg/mL, the “Oxaliplatin concentration of the saturated solution” value ([2]; 25% Dextran 10) was 10.90 mg/mL and the “Oxaliplatin concentration of the saturated solution” value ([2]; 25% Dextran 40) was 10.85 mg/mL. For the same compound, the “Oxaliplatin concentration of the saturated solution” value ([2]; 25% Dextran 70) was 10.90 mg/mL, the “Oxaliplatin concentration of the saturated solution” value ([2]; 25% Galactose) was 11.53 mg/mL and the “Oxaliplatin concentration of the saturated solution” value ([2]; 30% Glucose) was 12.66 mg/mL. For the same compound, the “Oxaliplatin concentration of the saturated solution” value ([2]; 40% Glucose) was 13.54 mg/mL, the “Oxaliplatin concentration of the saturated solution” value ([2]; 50% Fructose) was 12.56 mg/mL and the “Oxaliplatin concentration of the saturated solution” value ([2]; 50% Maltose) was 17.83 mg/mL. The solubility ([2]; aqueous solution, 25 °C, water) was 7000 to 8000 µg/mL, the solubility ([2]; aqueous solutions with solubilizers, aqueous with cosolvent or surfactant or cyclodextrin) was > 7000 µg/mL and the “Oxaliplatin concentration obtained with adjuvants” value ([2]; glucose, maltose, fructose, galactose, dextran 10, 40, 70, polyethylene glycol 200, 300, 400 and 600 as adjuvants) was “more than 7 mg/ml solvent”. The “pH of the saturated solution” value ([2]; 0% Glucose) was “pH 6.1”, the “pH of the saturated solution” value ([2]; 5% Glucose) was “pH 5.9” and the “pH of the saturated solution” value ([2]; 10% Glucose) was “pH 5.8”. For the same compound, the “pH of the saturated solution” value ([2]; 10% Lactose) was “pH 4.3”, the “pH of the saturated solution” value ([2]; 10% Trehalose) was “pH 4.6” and the “pH of the saturated solution” value ([2]; 20% Glucose) was “pH 5.7”. The “pH of the saturated solution” value ([2]; 25% Dextran 10) was “pH 4.8”, the “pH of the saturated solution” value ([2]; 25% Dextran 40) was “pH 4.2” and the “pH of the saturated solution” value ([2]; 25% Dextran 70) was “pH 4.1”. For the same compound, the “pH of the saturated solution” value ([2]; 25% Galactose) was “pH 6.3”, the “pH of the saturated solution” value ([2]; 30% Glucose) was “pH 5.6” and the “pH of the saturated solution” value ([2]; 40% Glucose) was “pH 5.6”. For the same compound, the “pH of the saturated solution” value ([2]; 50% Fructose) was “pH 4.7”, the “pH of the saturated solution” value ([2]; 50% Maltose) was “pH 3.7” and the solubility ([2]; water) was ~7500 µg/mL. The “Maximum concentration of oxaliplatin in water” value ([2]; with additional dissolved tonic, pH-adjusting, buffering or preserving adjuvants) was 7 mg/mL.
